The source of these data is US20130296363A1, “QUINOLINE AND ISOQUINOLINE DERIVATIVES FOR USE AS JAK MODULATORS” (AMBIT BIOSCIENCES CORPORATION, priority 2010, published 2013).

Experiment [1] deals with GM-CSFR/JAK2/STAT5 pathway in CSTF-1 cells. The experiment is described as follows: CSTF-1 cell-based reporter assay (beta-lactamase reporter, GM-CSF stimulated). The following applies: Homo sapiens, GM-CSF at 2 ng/mL, 4 hours, read-out: Cell Assay: CS TF-1 reporter assay IC50. On the procedure: CSTF-1 cells are derived from the human erythroleukemia cell line that is growth dependent on GM-CSF and has an intact GM-CSFR/JAK2/STAT5 pathway. The cell line contains stably integrated beta-lactamase reporter gene under the control of the […] (irf 1) response element recognized by the activated transcription factor STAT5. csTF-1 cells (Invitrogen K1219) were washed with assay media (97% OPTIMEM/0.5% dialyzed FBS/0.1 mM NEAA/1 mM Na pyr/P/S) and seeded in the same media at 5×10^5 cell/mL in T150 flask. After 16 hour incubation, cells were seeded at 2×10^5 cell/well in 50 μl volume, into Costar, clear bottom, 96-well assay plates. Serial dilutions of compounds were added to the plates with final DMSO concentration at 0.5% and GM-CSF at 2 ng/mL and the plates were then incubated at 30° C. and 5% CO2 for 4 hours. The plates were brought to room temperature before adding Substrate Mixture according to manufacturer's protocol (Invitrogen, Catalog #K1085). The assay plates containing the substrate mixture were incubated in the dark at room temperature for 2 hours. Blue and green fluorescence was measured with excitation at 409 nm and emission at 460 nm (for blue) and excitation at 409 nm and emission at 530 nm (for green) using Spectra Max Gemini EM.
On the technique in general: Reporter assays use an easily measured gene product as a stand-in for the process of interest.

A further experiment has as its target T1, JAK2 (Homo sapiens, UniProt O60674).
T1 construct: made in house
Description: Competition binding assay to determine Kd against JAK kinases: JAK2. On the procedure: (§1) Competition binding assays used herein were developed, validated and performed as described in Fabian et al., Nature Biotechnology 2005, 23, 329-336. Kinases were produced as fusions to T7 phage (See, Fabian et al. or WO04/015142) or alternatively, the kinases were expressed in HEK-293 cells and subsequently tagged with DNA for PCR detection (See, WO08/005,310). For the binding assays, streptavidin-coated magnetic beads were treated with biotinylated affinity ligands for 30 min at rt to generate affinity resins. The liganded beads were blocked with excess biotin and washed with blocking buffer (SeaBlock (Pierce), 1% BSA, 0.05% Tween 20, 1 mM DTT) to remove unbound ligand and to reduce non-specific binding. Binding reactions were assembled by combining kinase, liganded affinity beads, and test compounds in 1× binding buffer (20% SeaBlock, 0.17×PBS, 0.05% Tween 20, 6 mM DTT). Test compounds were prepared as 100× stocks in DMSO and rapidly diluted into the aqueous environment. DMSO was added to control assays lacking a test compound. Primary screen interactions were performed in polypropylene 384-well plates in a final volume of 34 μL, while Kd determinations were performed in polystyrene 96-well plates in a final volume of 135 μL. The assay plates were incubated at room temperature with shaking for 1 hour, long enough for binding reactions to reach equilibrium, and the affinity beads were washed extensively with wash buffer (1×PBS, 0.05% Tween 20) to remove unbound protein. The beads were then resuspended in elution buffer (1×PBS, 0.05% Tween 20, 2 μM non-biotinylated affinity ligand) and incubated at room temperature with shaking for 30 min. The kinase concentration in the eluates was measured by quantitative PCR. Each kinase was tested individually against each compound. Kds were determined using eleven serial threefold dilutions. A selectivity score, which is a quantitative measure of selectivity of a compound against a panel of enzymes, may be calculated for a compound by dividing the number of enzymes for which a compound meets a set criteria, (for example, a binding constant of 100 nM or less), by the total number of enzymes tested.

The target of another experiment is T2, JAK3 (Homo sapiens, UniProt P52333).
T2 construct: made in house
T2 sequence (P52333 1-1124): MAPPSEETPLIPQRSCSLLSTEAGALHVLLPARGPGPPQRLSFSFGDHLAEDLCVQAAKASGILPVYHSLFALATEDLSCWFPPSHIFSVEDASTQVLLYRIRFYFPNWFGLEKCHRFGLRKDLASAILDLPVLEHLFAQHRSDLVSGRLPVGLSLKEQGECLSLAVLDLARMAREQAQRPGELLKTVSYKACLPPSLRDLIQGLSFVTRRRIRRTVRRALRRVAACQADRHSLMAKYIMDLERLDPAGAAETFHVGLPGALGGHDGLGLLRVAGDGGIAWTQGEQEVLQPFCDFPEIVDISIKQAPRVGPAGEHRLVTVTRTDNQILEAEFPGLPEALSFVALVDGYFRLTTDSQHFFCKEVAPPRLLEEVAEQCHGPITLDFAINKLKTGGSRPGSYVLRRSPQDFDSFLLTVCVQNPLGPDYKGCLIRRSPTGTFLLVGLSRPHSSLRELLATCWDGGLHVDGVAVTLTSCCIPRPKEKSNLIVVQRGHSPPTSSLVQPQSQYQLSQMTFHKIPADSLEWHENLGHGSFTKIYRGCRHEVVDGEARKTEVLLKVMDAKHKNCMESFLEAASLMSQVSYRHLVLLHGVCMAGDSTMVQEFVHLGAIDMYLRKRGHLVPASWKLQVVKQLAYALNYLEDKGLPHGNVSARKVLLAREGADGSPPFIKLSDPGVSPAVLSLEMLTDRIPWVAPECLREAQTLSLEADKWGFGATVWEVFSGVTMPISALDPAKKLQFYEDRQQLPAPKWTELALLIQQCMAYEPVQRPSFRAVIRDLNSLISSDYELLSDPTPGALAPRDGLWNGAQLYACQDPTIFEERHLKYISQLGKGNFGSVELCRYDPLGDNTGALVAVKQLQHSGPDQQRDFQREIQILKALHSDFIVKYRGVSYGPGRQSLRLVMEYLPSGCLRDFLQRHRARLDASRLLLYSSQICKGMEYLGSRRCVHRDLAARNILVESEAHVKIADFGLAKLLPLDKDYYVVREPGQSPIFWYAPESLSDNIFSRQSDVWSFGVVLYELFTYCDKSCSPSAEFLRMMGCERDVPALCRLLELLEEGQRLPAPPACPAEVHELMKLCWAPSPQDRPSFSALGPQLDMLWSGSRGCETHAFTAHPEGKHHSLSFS
The experiment is described as follows: Competition binding assay to determine Kd against JAK kinases: JAK3. The procedure:
as §1

Another experiment has as its target T3, TYK2 (Homo sapiens, UniProt P29597).
T3 construct: made in house
Description: Competition binding assay to determine Kd against JAK kinases: TYK2. The procedure: as §1

In experiment [2] the test system is panel of distinct kinases excluding mutant variants, typically 359 or 386 kinases. Description: Kinase selectivity score S10 from competition binding panel. The conditions noted are these: compound at 10 μM; fraction of kinases with inhibition of 90% or greater. The procedure: as §1

T1 sequence (O60674 whole entry): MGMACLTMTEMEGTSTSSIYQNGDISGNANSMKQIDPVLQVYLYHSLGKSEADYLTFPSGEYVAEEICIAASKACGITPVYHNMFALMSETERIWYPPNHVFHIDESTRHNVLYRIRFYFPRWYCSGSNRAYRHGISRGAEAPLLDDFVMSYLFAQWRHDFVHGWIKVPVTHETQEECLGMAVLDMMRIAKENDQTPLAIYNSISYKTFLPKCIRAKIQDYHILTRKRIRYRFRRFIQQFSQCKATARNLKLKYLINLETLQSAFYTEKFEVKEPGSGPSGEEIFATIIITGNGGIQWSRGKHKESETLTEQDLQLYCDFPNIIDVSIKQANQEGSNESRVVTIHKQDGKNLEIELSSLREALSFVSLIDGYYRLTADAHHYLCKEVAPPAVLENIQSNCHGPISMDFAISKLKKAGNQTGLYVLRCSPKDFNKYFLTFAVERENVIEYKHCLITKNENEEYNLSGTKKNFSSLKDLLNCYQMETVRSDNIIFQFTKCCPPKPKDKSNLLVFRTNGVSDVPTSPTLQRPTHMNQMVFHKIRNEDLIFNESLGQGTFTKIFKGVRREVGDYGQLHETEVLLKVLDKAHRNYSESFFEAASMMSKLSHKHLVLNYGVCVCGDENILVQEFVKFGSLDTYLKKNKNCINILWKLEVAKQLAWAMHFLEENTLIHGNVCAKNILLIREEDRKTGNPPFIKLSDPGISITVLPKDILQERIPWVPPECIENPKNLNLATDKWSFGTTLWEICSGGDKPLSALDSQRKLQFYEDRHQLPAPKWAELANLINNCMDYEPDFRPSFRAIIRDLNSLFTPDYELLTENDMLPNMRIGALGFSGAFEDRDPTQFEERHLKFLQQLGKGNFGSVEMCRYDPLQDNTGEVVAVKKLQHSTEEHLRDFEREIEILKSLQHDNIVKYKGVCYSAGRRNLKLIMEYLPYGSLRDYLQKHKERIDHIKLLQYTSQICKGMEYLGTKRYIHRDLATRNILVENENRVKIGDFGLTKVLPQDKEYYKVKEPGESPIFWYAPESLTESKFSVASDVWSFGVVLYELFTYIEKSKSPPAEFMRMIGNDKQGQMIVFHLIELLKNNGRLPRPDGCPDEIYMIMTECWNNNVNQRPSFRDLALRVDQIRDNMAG
T3 sequence (P29597 whole entry): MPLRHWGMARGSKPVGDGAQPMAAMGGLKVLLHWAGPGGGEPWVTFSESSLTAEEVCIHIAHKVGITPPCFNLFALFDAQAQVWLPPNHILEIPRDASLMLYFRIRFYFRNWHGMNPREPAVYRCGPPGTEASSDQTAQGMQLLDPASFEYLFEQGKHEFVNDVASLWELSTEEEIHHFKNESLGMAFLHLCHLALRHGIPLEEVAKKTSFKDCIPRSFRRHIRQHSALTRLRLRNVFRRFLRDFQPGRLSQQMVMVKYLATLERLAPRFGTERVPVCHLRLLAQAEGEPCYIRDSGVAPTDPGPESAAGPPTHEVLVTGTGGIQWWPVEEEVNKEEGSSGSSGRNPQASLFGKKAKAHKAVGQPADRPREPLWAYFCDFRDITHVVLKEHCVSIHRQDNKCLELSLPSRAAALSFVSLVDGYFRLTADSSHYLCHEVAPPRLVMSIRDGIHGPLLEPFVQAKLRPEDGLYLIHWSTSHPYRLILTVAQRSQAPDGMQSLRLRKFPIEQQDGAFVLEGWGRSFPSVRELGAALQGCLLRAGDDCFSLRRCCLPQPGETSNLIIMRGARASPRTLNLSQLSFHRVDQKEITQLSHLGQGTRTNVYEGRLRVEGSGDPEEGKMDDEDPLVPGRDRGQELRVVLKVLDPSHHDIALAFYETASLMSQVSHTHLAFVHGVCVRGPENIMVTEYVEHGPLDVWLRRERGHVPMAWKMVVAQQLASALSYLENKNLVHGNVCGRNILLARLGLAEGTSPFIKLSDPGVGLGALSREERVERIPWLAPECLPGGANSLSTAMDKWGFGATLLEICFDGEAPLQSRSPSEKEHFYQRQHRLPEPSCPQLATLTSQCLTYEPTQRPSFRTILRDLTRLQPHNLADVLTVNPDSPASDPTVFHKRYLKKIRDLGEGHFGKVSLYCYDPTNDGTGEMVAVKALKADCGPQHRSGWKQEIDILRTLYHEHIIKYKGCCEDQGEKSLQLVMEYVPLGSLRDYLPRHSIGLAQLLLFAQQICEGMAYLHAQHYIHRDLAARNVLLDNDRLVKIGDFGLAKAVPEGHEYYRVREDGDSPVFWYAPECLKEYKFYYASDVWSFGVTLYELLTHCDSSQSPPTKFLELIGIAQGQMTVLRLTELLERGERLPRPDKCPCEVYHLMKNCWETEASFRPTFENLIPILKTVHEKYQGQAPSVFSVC

Usually IC50 stands for the concentration needed to halve the response being measured. In general, Kd refers to the free concentration of one partner at which half of the binding sites on the other are occupied at equilibrium, for simple one-to-one binding. `O=S(=O)(c1ccc(F)cc1)c1cc2ccccc2c(Nc2ncco2)n1` [Example 23, N-(3-(4-fluorophenylsulfonyl)isoquinolin-1-yl)oxazol-2-amine]: the IC50 in experiment [1] is more than 500 nM. The values for the Kd on JAK2, at JAK3 and on TYK2 were more than 50 nM, more than 100 nM and more than 100 nM, respectively. Further, in experiment [2], the “S-Score: S(10) at 10 μM” value is “A (A ≦ 0.3)”.
`[2H]C([2H])([2H])n1cnc(Nc2nc(S(=O)(=O)c3ccc(F)cc3)cc3ccccc23)c1` [Example 24, 3-((4-fluorophenyl)sulfonyl)-N-(1-methyl-d3-1H-imidazol-4-yl)isoquinolin-1-amine]: the IC50 in experiment [1] was not above 100 nM. Further, the results for the equilibrium dissociation constant (Kd) on JAK2, at JAK3 and at TYK2 were not above 5 nM, not above 10 nM and not above 10 nM, respectively. Further, the “S-Score: S(10) at 10 μM” value in experiment [2] is “B (0.3 < B ≦ 0.4)”.
As for `CCn1cnc(Nc2nc(S(=O)(=O)c3ccc(F)cc3)cc3ccccc23)c1` [Example 25, N-(1-ethyl-1H-imidazol-4-yl)-3-((4-fluorophenyl)sulfonyl)isoquinolin-1-amine], the 50% inhibitory concentration (IC50) in experiment [1] was not above 100 nM. Besides, the figures for the Kd on JAK2, at JAK3 and at TYK2 were not above 5 nM, not above 10 nM and not above 10 nM, respectively. Moreover, the “S-Score: S(10) at 10 μM” value in experiment [2] is listed as “C (0.4 < C ≦ 0.5)”.
With `Cc1cc(Nc2nc(S(=O)(=O)c3ccc(F)cc3)cc3c(Br)cccc23)n[nH]1` [Example 26, 5-bromo-3-((4-fluorophenyl)sulfonyl)-N-(5-methyl-1H-pyrazol-3-yl)isoquinolin-1-amine], the IC50 in experiment [1] is not above 100 nM. Also, the Kd on JAK2 is not above 5 nM; on JAK3, not above 10 nM; at TYK2, not above 10 nM. In addition, the “S-Score: S(10) at 10 μM” value in experiment [2] is recorded as “A (A ≦ 0.3)”.
